Data set [1] relates to pancreatic islet cells of Sprague Dawley rats. The experiment in a line: Assay for promoting insulin secretion (insulin ELISA). The class given is cell-based. As to conditions: for EC50 / insulin secretory capacity: rat islet cells, 0.1-100 nM; for EC50: 16.7 mM glucose, 2 hours; for insulin secretory capacity: FIG. 5. On the procedure:
Cells used for this assay were pancreatic islet cells of Sprague Dawley rats, which could be isolated by collagenase digestion and then Ficoll gradient centrifugation. After being cultured for 2˜3 days in an incubator, the isolated pancreatic islet cells were suspended in 1 ml of KRH buffer (16.7 mM glucose) at a density of 20 cells per well into 24-well plates. […] Then, […] of the culture was taken from each well and analyzed for insulin level using an insulin ELISA kit.

For data set [2], the system named is db/db mice. The experiment in a line: Measurement of anti-diabetic activity in animals (blood glucose monitoring). The class given is in vivo. As to conditions: for time blood glucose kept at normal levels (<150 mg/dL) after injection: s.c., same dosage, db/db mice.
The conditions of data set [3]: rat, in vivo, sc.
Description: SD rats weighing 200 g were subcutaneously injected with samples at a dose of 1 nmol/rat (4.18 μg/rat), followed by sampling blood through a tube inserted into the jugular vein. The blood samples were monitored for drug level using an ELISA kit.
For data set [4], the system named is db/db mice. The data set can be described thus: Animal model test: oral glucose tolerance after s.c. injection. In kind it is in vivo. As to conditions: 1 nmol/kg s.c. 30 min before oral glucose, FIG. 8. How it is done: 30 min before, at the time of, and 15, 30, 60, 120 and 180 min after the oral administration of glucose, blood samples were taken from the tail vein and monitored for glucose level.

The conditions of data set [5]: rat, in vivo, iv.

Like-named read-outs stand apart in the source and are kept apart here. A value given as a limit tells only on which side of the number the result lay.

As to “PEG20k-exendin-4: exendin-4 modified at lysine-27 with 20 kDa mPEG-SPA, Example 2”, the “residual activity (insulin secretion)” value in data set [1] (10 nM, relative to natural exendin-4, FIG. 9) is recorded as at least 40%. Moreover, the “time blood glucose kept at normal levels (<150 mg/dL) after injection” value (from here on “time blood glucose kept at normal levels”) in data set [2] was “about 36 hours”. The substance further displayed an Elimination Half Life in data set [3] of 22.0 ± 1.7 h.
On to “PEG10k-exendin-4: exendin-4 modified at lysine-27 with 10 kDa mPEG-SPA, Example 2”, for which, in data set [2], the “time blood glucose kept at normal levels” value came to 18 h.
Take “PEG5k-exendin-4: exendin-4 modified at lysine-27 with 5 kDa mPEG-SPA, Example 2”: the “time blood glucose kept at normal levels” value in data set [2] worked out at 12 h.
Regarding “Lys^27-PEG2k-exendin-4: exendin-4 modified at lysine-27 with 2 kDa PEG (mPEG-SPA), Example 2”, the “activity by area under the glucose curve 0 to 180 min” value in data set [4] is on record as “activity similar to that of natural exendin-4”. Moreover, in data set [1], the EC50 came out at 3.11 nM; the insulin secretory capacity result is “superior to that of the other modified exendin-4, and similar to that of natural exendin-4”. The “time blood glucose kept at normal levels” value in data set [2] is given as “about 6 hours”. In addition, the “time to reach basal line (<2 ng/mL) after administration” value in data set [3] turned out to be 4 h.
“PEG23k-Exendin-4 (tri-branched): exendin-4 modified at lysine-27 with 23 kDa tri-branched PEG, Example 3”: in data set [5], the AUC was found to be 7659 ± 1365 ng·h/mL, the “Elimination Half Life” value is 25.1 ± 9.1 h and the “Volume of Distribution” value is 9.41 ± 1.57 mL. The “promotion of insulin secretion, dose dependence” value in data set [1] (0.1, 1, 10 and 100 nM, FIG. 16) was “promote insulin secretion in a dose-dependent manner”. Further, in data set [2] (dose of 5 nmol/kg), the “duration of medicinal efficacy” value was 12 to 18 h. Further, the “duration of medicinal efficacy” value in data set [2] (dose of 10 nmol/kg) was in the range of 36 to 48 h. In addition, in data set [2] (dose of 20 nmol/kg), the “duration of medicinal efficacy” value is 72 to 96 h. In data set [2] (dose of 50 nmol/kg), the “duration of useful medicinal effects” value is at most 120 h.
Take “N^ter-PEG2k-exendin-4: exendin-4 modified at the N-terminus with 2 kDa mPEG-propionaldehyde, Example 1”: in data set [4], the “activity by area under the glucose curve 0 to 180 min” value is listed as “low effects”. For the same substance, in data set [1], the EC50 was determined as 136 nM and the insulin secretory capacity result was “low insulin secretory capacity”.
For “PEG20k-Exendin-4 (bi-branched): exendin-4 modified with 20 kDa bi-branched PEG, Example 3”, in data set [5], the AUC worked out at 5717 ± 1015 ng·h/mL, the “Elimination Half Life” value was 28.0 ± 10.4 h and the “Volume of Distribution” value amounted to 25.45 ± 16.84 mL. The “time blood glucose kept at normal levels” value in data set [2] is “about 8 hours”.

In general, EC50 refers to the midpoint of the concentration-response curve. Higher therefore signals lower potency in that assay. For orientation: AUC means concentration integrated over time. The low end stands for less exposure, the high end for more exposure.

The values are drawn from patent US8420598B2, “Mono modified exendin with polyethylene glycol or its derivatives and uses thereof” (B & L Delipharm Corp., priority 2007, dated 2013).
